Laboratory results: the NIST ThermoML archive (doi:10.1021/je034087q)

Experiment: xn = mol fraction of the nth substance listed
Settings: Fluid (supercritical or subcritical phases)

CC(C)=O [acetone] + O=C=O
Settings	mass density [kg/m3]
335.15 K, 10350 kPa, x2 = 0.909	583
335.15 K, 10420 kPa, x2 = 0.909	589
335.15 K, 10500 kPa, x2 = 0.909	593
335.15 K, 10590 kPa, x2 = 0.909	599
335.15 K, 10680 kPa, x2 = 0.909	604
335.15 K, 10780 kPa, x2 = 0.909	611
335.15 K, 10890 kPa, x2 = 0.909	616
335.15 K, 11020 kPa, x2 = 0.909	623
335.15 K, 11150 kPa, x2 = 0.909	628
335.15 K, 11280 kPa, x2 = 0.909	635
335.15 K, 11440 kPa, x2 = 0.909	640
335.15 K, 11600 kPa, x2 = 0.909	648
335.15 K, 11790 kPa, x2 = 0.909	653
335.15 K, 12010 kPa, x2 = 0.909	661
335.15 K, 12240 kPa, x2 = 0.909	667
335.15 K, 12460 kPa, x2 = 0.909	675
335.15 K, 12750 kPa, x2 = 0.909	681
335.15 K, 13080 kPa, x2 = 0.909	691
335.15 K, 13400 kPa, x2 = 0.909	697
335.15 K, 13770 kPa, x2 = 0.909	706
335.15 K, 14150 kPa, x2 = 0.909	711
335.15 K, 14600 kPa, x2 = 0.909	721
336.35 K, 9960 kPa, x2 = 0.902	531
336.35 K, 10000 kPa, x2 = 0.902	535
336.35 K, 10030 kPa, x2 = 0.902	538
336.35 K, 10080 kPa, x2 = 0.902	542
336.35 K, 10110 kPa, x2 = 0.902	545
336.35 K, 10150 kPa, x2 = 0.902	547
336.35 K, 10190 kPa, x2 = 0.902	551
336.35 K, 10230 kPa, x2 = 0.902	555
336.35 K, 10260 kPa, x2 = 0.902	558
336.35 K, 10310 kPa, x2 = 0.902	561
336.35 K, 10360 kPa, x2 = 0.902	566
336.35 K, 10390 kPa, x2 = 0.902	569
336.35 K, 10450 kPa, x2 = 0.902	573
336.35 K, 10540 kPa, x2 = 0.902	579
336.35 K, 10610 kPa, x2 = 0.902	583
336.35 K, 10710 kPa, x2 = 0.902	590
336.35 K, 10810 kPa, x2 = 0.902	595
336.35 K, 10910 kPa, x2 = 0.902	602
336.35 K, 11020 kPa, x2 = 0.902	606
336.35 K, 11100 kPa, x2 = 0.902	611
336.35 K, 11200 kPa, x2 = 0.902	616
336.35 K, 11320 kPa, x2 = 0.902	620
336.35 K, 11420 kPa, x2 = 0.902	625
336.35 K, 11570 kPa, x2 = 0.902	631
336.35 K, 11700 kPa, x2 = 0.902	638
336.35 K, 11790 kPa, x2 = 0.902	641
336.35 K, 11950 kPa, x2 = 0.902	645
336.35 K, 12080 kPa, x2 = 0.902	649
336.35 K, 12210 kPa, x2 = 0.902	654
336.35 K, 12400 kPa, x2 = 0.902	659
336.35 K, 12570 kPa, x2 = 0.902	663
336.35 K, 12710 kPa, x2 = 0.902	668
336.35 K, 12940 kPa, x2 = 0.902	673
336.35 K, 13140 kPa, x2 = 0.902	678
336.35 K, 13320 kPa, x2 = 0.902	684
336.35 K, 13580 kPa, x2 = 0.902	688
336.35 K, 13900 kPa, x2 = 0.902	694
336.35 K, 14180 kPa, x2 = 0.902	701
336.35 K, 14450 kPa, x2 = 0.902	706
336.35 K, 14700 kPa, x2 = 0.902	710
336.35 K, 14920 kPa, x2 = 0.902	715
338.15 K, 10080 kPa, x2 = 0.902	511
338.15 K, 10110 kPa, x2 = 0.902	515
338.15 K, 10180 kPa, x2 = 0.902	520
338.15 K, 10230 kPa, x2 = 0.902	524
338.15 K, 10280 kPa, x2 = 0.902	529
338.15 K, 10340 kPa, x2 = 0.902	533
338.15 K, 10380 kPa, x2 = 0.902	538
338.15 K, 10430 kPa, x2 = 0.902	542
338.15 K, 10500 kPa, x2 = 0.902	548
338.15 K, 10560 kPa, x2 = 0.902	552
338.15 K, 10640 kPa, x2 = 0.902	558
338.15 K, 10710 kPa, x2 = 0.902	563
338.15 K, 10780 kPa, x2 = 0.902	569
338.15 K, 10860 kPa, x2 = 0.902	573
338.15 K, 10910 kPa, x2 = 0.902	581
338.15 K, 10980 kPa, x2 = 0.902	584
338.15 K, 11080 kPa, x2 = 0.902	590
338.15 K, 11200 kPa, x2 = 0.902	595
338.15 K, 11280 kPa, x2 = 0.902	600
338.15 K, 11350 kPa, x2 = 0.902	603
338.15 K, 11420 kPa, x2 = 0.902	606
338.15 K, 11510 kPa, x2 = 0.902	610
338.15 K, 11590 kPa, x2 = 0.902	615
338.15 K, 11630 kPa, x2 = 0.902	616
338.15 K, 11710 kPa, x2 = 0.902	619
338.15 K, 11790 kPa, x2 = 0.902	622
338.15 K, 11880 kPa, x2 = 0.902	627
338.15 K, 11950 kPa, x2 = 0.902	629
338.15 K, 12040 kPa, x2 = 0.902	632
338.15 K, 12110 kPa, x2 = 0.902	634
338.15 K, 12240 kPa, x2 = 0.902	640
338.15 K, 12330 kPa, x2 = 0.902	642
338.15 K, 12460 kPa, x2 = 0.902	646
338.15 K, 12570 kPa, x2 = 0.902	651
338.15 K, 12700 kPa, x2 = 0.902	654
338.15 K, 12880 kPa, x2 = 0.902	659
338.15 K, 13010 kPa, x2 = 0.902	663
338.15 K, 13200 kPa, x2 = 0.902	668
338.15 K, 13320 kPa, x2 = 0.902	671
338.15 K, 13480 kPa, x2 = 0.902	675
338.15 K, 13710 kPa, x2 = 0.902	680
338.15 K, 13860 kPa, x2 = 0.902	684
338.15 K, 14080 kPa, x2 = 0.902	689
338.15 K, 14300 kPa, x2 = 0.902	693
338.15 K, 14560 kPa, x2 = 0.902	699
338.15 K, 14780 kPa, x2 = 0.902	700
338.15 K, 15010 kPa, x2 = 0.902	705
